In one test the test system is L929 cells. Description: MTT cytotoxicity assay, L929 healthy cells. Type of test: cell-based. To be noted: healthy mouse fibroblast. As to the method: (§1) Cell culture experiments were performed to assess the antiproliferative efficacy of the synthesized benzothiazole compounds on the MCF7 and MDA‐MB‐231 cell lines. The anticancer activity of the compounds were compared with the L929 healthy cell line as a control. Doxorubicin and cisplatin, the anticancer agents, were employed as positive controls.
(§2) Human epithelial breast adenocarcinoma (MDA‐MB‐231) (ATCC® HTB‐26™), human epithelial breast adenocarcinoma (MCF7) (ATCC® HTB‐22™), and healthy mouse fibroblast (L929) (ATCC® CRL‐10317™) cells were obtained commercially from ATCC.
(§3) MDA‐MB‐231, MCF7, and L929 cells were seeded in 25 cm² flasks. DMEM medium containing 10% FBS, 1% Penicillin‐Streptomycin, L‐Glutamine, and NaHCO₃ was used as the cell culture medium. The cells were incubated and propagated at 37°C in an environment containing 5% CO₂ and 95% humidity. When the cells reached 80%–90% confluency, they were passaged to different media. During passaging, DMEM was first withdrawn, and the cells were washed with PBS to remove FBS from the medium. Then, Trypsin‐EDTA solution was added to the flask to detach the cells, and the flask was kept in a CO₂ incubator for approximately 1 min. To stop the activity of Trypsin‐EDTA medium containing FBS was added to the flask. The cells were collected into a Falcon tube and centrifuged at 800 rpm for 5 min at room temperature. The supernatant was discarded, and the cell pellet was resuspended in the medium and seeded on cell culture plates according to the experimental protocol.
(§4) A total of 2 mg of each compound was dissolved in an appropriate amount of dimethyl sulfoxide (DMSO) to prepare 10 mM stock solutions. These stock solutions were then diluted to create 100 μM intermediate stocks and stored at −80°C. Commercially purchased cisplatin and doxorubicin HCl (Sigma, St. Louis, MO) were dissolved in DMSO following the manufacturer's protocol to create 20 mM stock solutions. These standard drug molecules were diluted from the stock solution, divided into 100 μM aliquots, and stored at –80°C until use.
(§5) MTT analysis was performed to evaluate the in vitro cytotoxicity of the synthesized compounds against different cancer cell lines. Cells used in the cytotoxicity experiments were cultured in DMEM medium supplemented with 10% FBS. Cells suspended in the medium (2 × 10⁴ cells/mL) were seeded into 96‐well culture plates and incubated at 37°C in a 5% CO₂ incubator. After 12 h, compounds were added at different doses (2 µL) to cells (2 × 10⁴) in the 96‐well plates and incubated at 37°C for 24 h.
(§6) The incubated cells were then treated with 20 µL of MTT solution and incubated at 37°C for 4 h. The supernatant was carefully removed from each well, and 100 µL of DMSO was added to each well to dissolve the formazan crystals formed by the cellular reduction of MTT. The absorbance was measured at 570 nm using an ELISA reader. […] At the end of the experiment, the device calculated the IC50 value for each well, and the average values were recorded. Each experiment was performed in at least three replicates.
A general note: Tetrazolium assays rely on reduction of a dye to a coloured formazan, in cell work by metabolically active cells.

A further test has as its system MCF7 cells. As to the kind of experiment: MTT antiproliferative assay, MCF7. Type of test: cell-based, human. To be noted: for IC50: MTT, 24 h incubation; for Selectivity MCF7: Selectivity index = L929 IC50 / MCF7 IC50 (24 h). As to the method:
as §1, §2, §3, §4, §5, §6

The next test deals with p38 MAPKα. Description: p38 MAPK alpha ELISA, total level in treated MCF7 cells normalised to total protein (BCA). The class given is cell-based, human. To be noted: MCF7 cells exposed to compound. The source says:
To account for variations in protein quantities among the cells. The total protein concentrations in cells subjected to the drugs were quantified. The p38 MAPKα levels were adjusted by dividing by the protein levels, yielding results represented as ng/μg protein (Table 3).
A bicinchoninic acid (BCA) protein assay kit (catalog no. 23227) was obtained from Thermo‐Fisher Scientific (IL, USA) and used to detect total protein by the BCA assay. In this assay, the reaction between BCA, Cu²⁺ ions, and Cu⁺ ions form a purple complex in alkaline conditions. The absorbance of this complex was measured at 562 nm, and the results were expressed in mg/mL.
The p38 MAPK alpha ELISA Kit (ab221012; Abcam, Cambridge, MA) was used to measure the levels of […] in cell lysates according to the manufacturer's instructions. The SimpleStep Enzyme‐Linked Immunosorbent Assay (ELISA) kit was designed to assess total p38 MAPKα protein semi‐quantitatively. The SimpleStep ELISA uses a reporter‐conjugated detection antibody, and an affinity‐tag labeled capture antibody to immunocapture the sample analyte in solution. An anti‐tag antibody coating the well immobilizes the entire complex (capture antibody, analyte, and detection antibody).
Samples or controls were added to the wells, followed by the Antibody Cocktail to complete the test. After incubation, the wells were washed to remove unbound material. […] The levels of MAPK were normalized to total protein content.
In general terms: An ELISA detects its analyte on a solid surface through an enzyme-linked reagent.

The next test relates to MDA‐MB‐231 cells. As to the kind of experiment: MTT antiproliferative assay, MDA-MB-231. Type of test: cell-based, human. To be noted: for IC50: MTT, 24 h incubation; for Selectivity MDA‐MB‐231: Selectivity index = L929 IC50 / MDA‐MB‐231 IC50 (24 h). As to the method: as §1, §2, §3, §4, §5, §6

The values below come from publication PMC11975549, “Development of Potent Type V MAPK Inhibitors: Design, Synthesis, and Biological Evaluation of Benzothiazole Derivatives Targeting p38α MAPK in Breast Cancer Cells” (Archiv Der Pharmazie, 2025).

For `O=C(Nc1nc2ccccc2s1)c1ccc(F)cc1` [Compound 2, N‐(Benzo[d]thiazol‐2‐yl)‐4‐fluorobenzamide], the IC50 in the test with L929 cells (L929, 24 h incubation) was found to be 21.02 ± 0.21 µM; in the test on MCF7 cells (Homo sapiens, MCF7), 11.2 ± 0.49 µM; in the test on MDA‐MB‐231 cells (Homo sapiens, MDA-MB-231) it was 17 ± 0.67 µM. In addition, the “Selectivity MCF7” value with MCF7 cells came out at 1.884. In addition, in the test on p38 MAPKα, the “Total p38α MAPK levels” value is 3.879 ± 0.868 ng/μg protein. Moreover, the “Selectivity MDA‐MB‐231” value in the test with MDA‐MB‐231 cells is 1.239.
In the case of `O=C(Cc1ccc(F)cc1)Nc1nc2ccccc2s1` [Compound 22, N‐(Benzo[d]thiazol‐2‐yl)‐2‐(4‐fluorophenyl) acetamide], the values for the IC50 in the test with L929 cells (24 h incubation), with MCF7 cells and with MDA‐MB‐231 cells were 210.6 ± 1.67 µM, 5.05 ± 0.01 µM and 3.8 ± 0.28 µM, respectively. The “Selectivity MCF7” value with MCF7 cells stood at 41.697. Moreover, the “Total p38α MAPK levels” value in the test on p38 MAPKα worked out at 3.952 ± 0.311 ng/μg protein. The “Selectivity MDA‐MB‐231” value with MDA‐MB‐231 cells was 55.413.
`O=C(Cc1cccs1)NCc1nc2ccccc2s1` [Compound 28, N‐(Benzo[d]thiazol‐2‐ylmethyl)‐2‐(thiophen‐2‐yl) acetamide]: the IC50 with L929 cells (24 h incubation) was found to be 31 ± 0.33 µM; with MCF7 cells, 11.1 ± 0.37 µM; with MDA‐MB‐231 cells, 18.8 ± 0.23 µM. Further, the “Selectivity MCF7” value in the test with MCF7 cells came out at 2.794. Further, the “Total p38α MAPK levels” value with p38 MAPKα is on record as 2.542 ± 0.228 ng/μg protein. For the same compound, in the test with MDA‐MB‐231 cells, the “Selectivity MDA‐MB‐231” value is listed as 1.655.
With `O=C(NCc1nc2ccccc2s1)c1cccs1` [Compound 14, N‐(Benzo[d]thiazol‐2‐ylmethyl) thiophene‐2‐carboxamide], the IC50 with L929 cells (L929, 24 h incubation) was found to be 22.2 ± 0.68 µM; in the test on MCF7 cells (Homo sapiens, MCF7), 10.6 ± 0.16 µM; with MDA‐MB‐231 cells (Homo sapiens, MDA-MB-231) it was 16 ± 0.68 µM. Further, in the test with MCF7 cells, the “Selectivity MCF7” value came out at 2.096. The “Total p38α MAPK levels” value in the test on p38 MAPKα is 0.199 ± 0.011 ng/μg protein. The “Selectivity MDA‐MB‐231” value in the test with MDA‐MB‐231 cells stood at 1.391.
`O=C(NCc1nc2ccccc2s1)c1ccc(F)cc1` [Compound 12, N‐(Benzo[d]thiazol‐2‐ylmethyl)‐4‐fluorobenzamide]: the IC50 in the test on L929 cells (L929, 24 h incubation) worked out at 43 ± 0.56 µM; in the test on MCF7 cells (Homo sapiens, MCF7) it was 21.1 ± 0.46 µM; in the test with MDA‐MB‐231 cells (Homo sapiens, MDA-MB-231) it was 15 ± 0.26 µM. For the same compound, the “Selectivity MCF7” value with MCF7 cells worked out at 2.038. Further, the “Selectivity MDA‐MB‐231” value in the test with MDA‐MB‐231 cells is on record as 2.869.
On the same counts, the results for `O=C(Nc1nc2ccccc2s1)c1ccccc1` [Compound 7, N‐(Benzo[d]thiazol‐2‐yl) benzamide] are 26.9 ± 0.97 µM, 12.4 ± 0.97 µM, 11.8 ± 0.57 µM, 2.171 and 2.284.
Turning to `COc1ccc(CC(=O)Nc2nc3ccccc3s2)cc1` [Compound 24, N‐(Benzo[d]thiazol‐2‐yl)‐2‐(4‐methoxyphenyl) acetamide], the IC50 with L929 cells (24 h incubation) worked out at 81.5 ± 1.07 µM. Further, in the test on MCF7 cells, the IC50 was determined as 12.7 ± 0.18 µM and the “Selectivity MCF7” value was found to be 6.440. Also, in the test with MDA‐MB‐231 cells, the IC50 stood at 12.9 ± 0.19 µM and the “Selectivity MDA‐MB‐231” value is 6.306.
Take `COc1cccc2c1C(=O)c1c(O)c3c(c(O)c1C2=O)C[C@@](O)(C(=O)CO)C[C@@H]3O[C@H]1C[C@H](N)[C@H](O)[C@H](C)O1` [Doxorubicin, reference compound]: the IC50 in the test with L929 cells (L929, 24 h incubation) was found to be 24 ± 1.07 µM; with MCF7 cells (Homo sapiens, MCF7), 5.8 ± 0.15 µM; in the test on MDA‐MB‐231 cells (Homo sapiens, MDA-MB-231), 9.27 ± 0.21 µM. For the same compound, the “Selectivity MCF7” value with MCF7 cells is reported as 4.131. Further, the “Selectivity MDA‐MB‐231” value in the test on MDA‐MB‐231 cells was 2.584.
In the same order, the values of `O=C(Nc1nc2ccccc2s1)c1ccc(Br)cc1` [Compound 5, N‐(Benzo[d]thiazol‐2‐yl)‐4‐bromobenzamide] are 31 ± 0.66 µM, 12.9 ± 0.37 µM, 15.3 ± 0.32 µM, 2.399 and 2.033.
On the same counts, the results for `O=C(NCc1nc2ccccc2s1)c1ccc(Cl)cc1` [Compound 11, N‐(Benzo[d]thiazol‐2‐ylmethyl)‐4‐chlorobenzamide] are 35.87 ± 0.23 µM, 15.6 ± 0.65 µM, 10 ± 0.36 µM, 2.304 and 3.583.
`O=C(Cc1ccc(Cl)cc1)NCc1nc2ccccc2s1` [Compound 27, N‐(Benzo[d]thiazol‐2‐ylmethyl)‐2‐(4‐chlorophenyl) acetamide] had an IC50 with L929 cells (24 h incubation) of 32.9 ± 0.35 µM. Further, in the test on MCF7 cells, the IC50 is 12.3 ± 0.96 µM and the “Selectivity MCF7” value came to 2.666. In the test on MDA‐MB‐231 cells, the IC50 stood at 14.7 ± 0.63 µM and the “Selectivity MDA‐MB‐231” value is listed as 2.243.
In the same order, the values of `O=C(NCc1nc2ccccc2s1)c1ccc(C(F)(F)F)cc1` [Compound 13, N‐(Benzo[d]thiazol‐2‐ylmethyl)‐4‐(trifluoromethyl) benzamide] are 32.8 ± 0.43 µM, 12.9 ± 0.86 µM, 2.534, 10 ± 0.43 µM and 3.273.
As to `COc1cccc(CC(=O)NCc2nc3ccccc3s2)c1` [Compound 26, N‐(Benzo[d]thiazol‐2‐ylmethyl)‐2‐(3‐methoxyphenyl) acetamide], the figures for the IC50 in the test with L929 cells (24 h incubation), with MCF7 cells and in the test with MDA‐MB‐231 cells were 27.7 ± 0.78 µM, 13.5 ± 0.35 µM and 15.8 ± 0.52 µM, respectively. The “Selectivity MCF7” value with MCF7 cells is on record as 2.047. The “Selectivity MDA‐MB‐231” value with MDA‐MB‐231 cells turned out to be 1.753.
Turning to `COc1ccc(OC)c(CC(=O)Nc2nc3ccccc3s2)c1` [Compound 20, N‐(Benzo[d]thiazol‐2‐yl)‐2‐(2,5‐dimethoxyphenyl) acetamide], the IC50 came to 87.8 ± 1.29 µM with L929 cells (24 h incubation), 14.7 ± 0.15 µM in the test with MCF7 cells and 16.07 ± 0.12 µM in the test on MDA‐MB‐231 cells. For the same compound, in the test with MCF7 cells, the “Selectivity MCF7” value was found to be 5.977. Also, the “Selectivity MDA‐MB‐231” value with MDA‐MB‐231 cells was 5.464.
On the same counts, the results for `O=C(Nc1nc2ccccc2s1)c1ccc(C(F)(F)F)cc1` [Compound 6, N‐(Benzo[d]thiazol‐2‐yl)‐4‐(trifluoromethyl) benzamide] are 23.9 ± 0.32 µM, 13.5 ± 0.37 µM, 10.9 ± 0.28 µM, 1.772 and 2.197.
In the same order, the values of `O=C(Cc1cccs1)Nc1nc2ccccc2s1` [Compound 25, N‐(Benzo[d]thiazol‐2‐yl)‐2‐(thiophen‐2‐yl) acetamide] are 135 ± 1.83 µM, 13.21 ± 0.03 µM, 14.4 ± 0.18 µM, 10.189 and 9.360.
On the same counts, the results for `N.N.[Cl][Pt][Cl]` [Cisplatin, reference compound] are 36 ± 2.01 µM, 7.03 ± 0.04 µM, 30.1 ± 1.39 µM, 5.118 and 1.195.
For `O=C(NCc1nc2ccccc2s1)c1ccc(Br)cc1` [Compound 16, N‐(Benzo[d]thiazol‐2‐ylmethyl)‐4‐bromobenzamide], the IC50 with L929 cells (L929, 24 h incubation) stood at 35.8 ± 0.46 µM; in the test with MCF7 cells (Homo sapiens, MCF7), 14.1 ± 0.95 µM; with MDA‐MB‐231 cells (Homo sapiens, MDA-MB-231), 20.25 ± 0.19 µM. For the same compound, in the test with MCF7 cells, the “Selectivity MCF7” value came to 2.536. Besides, the “Selectivity MDA‐MB‐231” value in the test with MDA‐MB‐231 cells stood at 1.766.

Broadly, the IC50 is the concentration that inhibits the measured activity by half. Lower therefore signals inhibition by little substance.
